The target in one assay is T1, Adrenergic β2 (Homo sapiens, UniProt P07550).
T1 construct: endogenous in cells; host or cells: H292 cells
The experiment in a line: Alternative adrenergic β2 mediated cAMP production in H292 cells (AlphaScreen cAMP detection). It is filed as cell-based. Conditions: for EC50: cAMP, test compounds incubated 60 minutes at room temperature, 300 μM rolipram, read-out: β2 pEC50 (converted); for β2 Int Act: fraction relative to the maximum activity determined for formoterol, 60 minutes incubation. The protocol:
Alternative Adrenergic β2 Mediated cAMP Production Cell Preparation
H292 cells were grown in 225 cm2 flasks incubator at 37° C., 5% CO2 in RPMI medium containing, 10% (v/v) FBS (foetal bovine serum) and 2 mM L-glutamine.
Adherent H292 cells were removed from tissue culture flasks by treatment with Accutase™ cell detachment solution for 15 minutes. Flasks were incubated for 15 minutes in a humidified incubator at 37° C., 5% CO2. Detached cells were re-suspended in RPMI media (containing 10% (v/v) FBS and 2 mM L-glutamine) at 0.05×10^6 cells per mL. 5000 cells in 100 μL were added to each well of a tissue-culture-treated 96-well plate and the cells incubated overnight in a humidified incubator at 37° C., 5% CO2. The culture media was removed and cells were washed twice with 100 μL assay buffer and replaced with 50 μL assay buffer (HBSS solution containing 10 mM HEPES pH7.4 and 5 mM glucose). Cells were rested at room temperature for 20 minutes after which time 25 μL of rolipram (1.2 mM made up in assay buffer containing 2.4% (v/v) dimethylsulphoxide) was added. Cells were incubated with rolipram for 10 minutes after which time test compounds were added and the cells were incubated for 60 minutes at room temperature. The final rolipram concentration in the assay was 300 μM and final vehicle concentration was 1.6% (v/v) dimethylsulphoxide. The reaction was stopped by removing supernatants, washing once with 100 μL assay buffer and replacing with 50 μL lysis buffer. The cell monolayer was frozen at −80° C. for 30 minutes (or overnight).
AlphaScreen™ cAMP Detection
The concentration of cAMP (cyclic adenosine monophosphate) in the cell lysate was determined using AlphaScreen™ methodology. The frozen cell plate was thawed for 20 minutes on a plate shaker then 10 μL of the cell lysate was transferred to a 96-well white plate. 40 μL of mixed AlphaScreen™ detection beads pre-incubated with biotinylated cAMP, was added to each well and the plate incubated at room temperature for 10 hours in the dark. The AlphaScreen™ signal was measured using an EnVision spectrophotometer (Perkin-Elmer Inc.) with the recommended manufacturer's settings. cAMP concentrations were determined by reference to a calibration curve determined in the same experiment using standard cAMP concentrations. Concentration response curves for agonists were constructed and data was fitted to a four parameter logistic equation to determine both the pEC50 and Intrinsic Activity. Intrinsic Activity was expressed as a fraction relative to the maximum activity determined for formoterol in each experiment.

The target of assay [1] is T2, recombinant human α1D receptor (Homo sapiens, UniProt P25100).
T2 construct: made in house; host or cells: HEK293 cells (membranes)
T2 sequence (P25100 1-572): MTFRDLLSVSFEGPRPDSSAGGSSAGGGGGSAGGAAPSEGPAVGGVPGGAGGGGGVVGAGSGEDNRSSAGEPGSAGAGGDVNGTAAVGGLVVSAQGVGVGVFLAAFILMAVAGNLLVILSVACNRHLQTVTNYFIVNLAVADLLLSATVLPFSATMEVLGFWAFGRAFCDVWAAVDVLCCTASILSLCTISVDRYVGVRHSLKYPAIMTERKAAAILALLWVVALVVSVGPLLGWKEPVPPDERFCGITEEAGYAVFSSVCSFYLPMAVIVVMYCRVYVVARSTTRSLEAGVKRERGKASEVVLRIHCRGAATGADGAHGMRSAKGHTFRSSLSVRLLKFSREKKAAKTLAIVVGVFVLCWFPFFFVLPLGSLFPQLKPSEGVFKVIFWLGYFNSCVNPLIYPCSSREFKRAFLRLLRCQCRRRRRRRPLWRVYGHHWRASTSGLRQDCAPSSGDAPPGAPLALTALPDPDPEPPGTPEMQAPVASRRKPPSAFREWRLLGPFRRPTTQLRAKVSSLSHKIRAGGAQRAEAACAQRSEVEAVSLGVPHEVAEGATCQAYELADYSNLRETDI
The experiment in a line: Adrenergic α1D selectivity assay, inhibition of [3H]-prazosin binding to membranes. The conditions noted are these: HEK293 membranes, [3H]-prazosin 0.3 nM; read-out: α1 bind pIC50 (converted). As to the method: Membranes were prepared from human embryonic kidney 293 (HEK293) cells expressing recombinant human α1D receptor. These were diluted in Assay Buffer (50 mM HEPES, 1 mM EDTA, 0.1% gelatin, pH 7.4) to provide a final concentration of membranes that gave a clear window between maximum and minimum specific binding.
Assays were performed in U-bottomed 96-well polypropylene plates. 10 μL [^3H]-prazosin (0.3 nM final concentration) and 10 μL of test compound (10× final concentration) were added to each test well. For each assay plate 8 replicates were obtained for [^3H]-prazosin binding in the presence of 10 μL vehicle (10% (v/v) DMSO in Assay Buffer; defining maximum binding) or 10 μL BMY7378 (10 μM final concentration; defining non-specific binding (NSB)). Membranes were then added to achieve a final volume of 100 μL. The plates were incubated for 2 hours at room temperature and then filtered onto PEI coated GF/B filter plates, pre-soaked for 1 hour in Assay Buffer, using a 96-well plate Tomtec cell harvester. Five washes with 250 μL wash buffer (50 mM HEPES, 1 mM EDTA, pH 7.4) were performed at 4° C. to remove unbound radioactivity. The plates were dried then sealed from underneath using Packard plate sealers and MicroScint-O (50 μL) was added to each well. The plates were sealed (TopSeal A) and filter-bound radioactivity was measured with a scintillation counter (TopCount, Packard BioScience) using a 3-minute counting protocol.
Total specific binding (B0) was determined by subtracting the mean NSB from the mean maximum binding. NSB values were also subtracted from values from all other wells. […] Data was fitted to a four parameter logistic equation to determine the compound potency, which was expressed as pIC50 (negative log molar concentration inducing 50% inhibition of [^3H]-prazosin binding).

Assay [2] deals with T3, recombinant human Dopamine Subtype D2s receptors (Homo sapiens, UniProt P14416).
T3 construct: purchased Perkin Elmer
T3 sequence (P14416 1-414 isoform P14416-2): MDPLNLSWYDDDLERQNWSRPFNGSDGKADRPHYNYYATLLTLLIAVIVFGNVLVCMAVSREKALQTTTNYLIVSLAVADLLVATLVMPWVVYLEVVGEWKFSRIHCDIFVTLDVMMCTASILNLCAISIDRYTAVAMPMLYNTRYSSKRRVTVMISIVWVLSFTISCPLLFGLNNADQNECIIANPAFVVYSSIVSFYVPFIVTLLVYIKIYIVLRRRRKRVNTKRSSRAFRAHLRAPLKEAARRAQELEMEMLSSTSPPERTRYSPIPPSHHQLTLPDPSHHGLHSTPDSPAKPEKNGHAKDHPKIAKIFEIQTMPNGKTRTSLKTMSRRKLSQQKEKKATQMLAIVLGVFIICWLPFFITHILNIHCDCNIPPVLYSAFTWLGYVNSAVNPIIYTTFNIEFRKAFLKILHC
The experiment in a line: Dopamine D2 selectivity assay, inhibition of [3H]-spiperone binding to membranes. Conditions: [3H]-spiperone 0.16 nM; read-out: D2 bind pIC50 (converted). The protocol: Membranes containing recombinant human Dopamine Subtype D2s receptors were obtained from Perkin Elmer. These were diluted in Assay Buffer (50 mM HEPES, 1 mM EDTA, 120 mM NaCl, 0.1% gelatin, pH 7.4) to provide a final concentration of membranes that gave a clear window between maximum and minimum specific binding.
Assays were performed in U-bottomed 96-well polypropylene plates. 30 μL [^3H]-spiperone (0.16 nM final concentration) and 30 μL of test compound (10× final concentration) were added to each test well. For each assay plate 8 replicates were obtained for [^3H]-spiperone binding in the presence of 30 μL vehicle (10% (v/v) DMSO in Assay Buffer; defining maximum binding) or 30 μL Haloperidol (10 μM final concentration; defining non-specific binding (NSB)). Membranes were then added to achieve a final volume of 300 μL. The plates were incubated for 2 hours at room temperature and then filtered onto PEI coated GF/B filter plates, pre-soaked for 1 hour in Assay Buffer, using a 96-well plate Tomtec cell harvester. Five washes with 250 μL wash buffer (50 mM HEPES, 1 mM EDTA, 120 mM NaCl, pH 7.4) were performed at 4° C. to remove unbound radioactivity. The plates were dried then sealed from underneath using Packard plate sealers and MicroScint-O (50 μL) was added to each well. The plates were sealed (TopSeal A) and filter-bound radioactivity was measured with a scintillation counter (TopCount, Packard BioScience) using a 3-minute counting protocol.
Total specific binding (B0) was determined by subtracting the mean NSB from the mean maximum binding. NSB values were also subtracted from values from all other wells. […] Data was fitted to a four parameter logistic equation to determine the compound potency, which was expressed as pIC50 (negative log molar concentration inducing 50% inhibition of [^3H]-spiperone binding).

The structures appear in SMILES notation. Structures can show the parent of a compound that is named as a salt.

The values that follow come from patent US7709511B2, “Benzothiazolone derivatives” (AstraZeneca AB, priority 2005, dated 2010).

T1 sequence (P07550 whole entry): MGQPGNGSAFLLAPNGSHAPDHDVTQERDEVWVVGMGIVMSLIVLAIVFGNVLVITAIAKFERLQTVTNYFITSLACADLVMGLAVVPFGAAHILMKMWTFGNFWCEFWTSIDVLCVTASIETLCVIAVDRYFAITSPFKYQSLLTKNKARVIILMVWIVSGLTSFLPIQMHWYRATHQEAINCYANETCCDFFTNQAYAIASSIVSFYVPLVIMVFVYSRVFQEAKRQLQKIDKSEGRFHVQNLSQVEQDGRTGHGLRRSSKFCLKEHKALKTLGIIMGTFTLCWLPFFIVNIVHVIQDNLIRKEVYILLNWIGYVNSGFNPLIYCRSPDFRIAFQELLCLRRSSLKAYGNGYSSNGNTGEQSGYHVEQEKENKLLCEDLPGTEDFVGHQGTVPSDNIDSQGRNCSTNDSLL

Take `CCN(CC)CCN(CCNCCc1ccc(O)c2[nH]c(=O)sc12)C(=O)CCOCCc1ccc2ccccc2c1` [Example 32, N-[2-(Diethylamino)ethyl]-N-(2-{[2-(4-hydroxy-2-oxo-2,3-dihydro-1,3-benzothiazol-7-yl)ethyl]amino}ethyl)-3-[2-(2-naphthyl)ethoxy]propanamide]: on Adrenergic β2, the EC50 was 10 nM and the “β2 Int Act” value is listed as 0.5. Moreover, the IC50 in assay [1] was 631 nM. Moreover, the IC50 in assay [2] is 794 nM.

In the case of `CCN(CC)CCN(CCNCCc1ccc(O)c2[nH]c(=O)sc12)C(=O)CCOCCc1ccc(Cl)c(Cl)c1` [Example 27, 3-[2-(3,4-Dichlorophenyl)ethoxy]-N-(2-diethylaminoethyl)-N-{2-[2-(4-hydroxy-2-oxo-2,3-dihydro-1,3-benzothiazol-7-yl)ethylamino]ethyl}propanamide dihydrobromide], on Adrenergic β2, the EC50 is 31.6 nM and the “β2 Int Act” value came to 0.6. Besides, the IC50 in assay [1] is 1000 nM. Further, the IC50 in assay [2] is 3160 nM.

As to `CCN(CC)CCN(CCNCCc1ccc(O)c2[nH]c(=O)sc12)C(=O)CCOCCc1cccc(O)c1` [Example 29, N-(2-Diethylaminoethyl)-N-{2-[2-(4-hydroxy-2-oxo-2,3-dihydro-1,3-benzothiazol-7-yl)ethylamino]ethyl}-3-[2-(3-hydroxyphenyl)ethoxy]propanamide dihydrobromide], at Adrenergic β2, the EC50 is 6.31 nM and the “β2 Int Act” value came out at 0.8. Also, the IC50 in assay [1] is 1260 nM. In addition, the IC50 in assay [2] is 251 nM.

On to `CCN(CC)CCN(CCNCCc1ccc(O)c2[nH]c(=O)sc12)C(=O)CCOCCc1cccc(Cl)c1Cl` [Example 20, 3-[2-(2,3-Dichlorophenyl)ethoxy]-N-(2-diethylaminoethyl)-N-(2-{[2-(4-hydroxy-2-oxo-2,3-dihydro-1,3-benzothiazol-7-yl)ethyl]amino}ethyl)propanamide ditrifluoroacetate], for which the EC50 on Adrenergic β2 was 10 nM. Besides, the “β2 Int Act” value at Adrenergic β2 worked out at 0.6. The IC50 in assay [1] is 398 nM; in assay [2], 1580 nM.

As for `CCN(CC)CCN(CCNCCc1ccc(O)c2[nH]c(=O)sc12)C(=O)CCOCCc1cccc(F)c1` [Example 22, N-(2-Diethylaminoethyl)-3-[2-(3-fluorophenyl)ethoxy]-N-{2-[2-(4-hydroxy-2-oxo-2,3-dihydro-1,3-benzothiazol-7-yl)ethylamino]ethyl}propanamide dihydrobromide], at Adrenergic β2, the EC50 was 7.94 nM and the “β2 Int Act” value was 0.8. In assay [1], the IC50 is 1260 nM. In assay [2], the IC50 is 5010 nM.

`CCN(CC)CCN(CCNCCc1ccc(O)c2[nH]c(=O)sc12)C(=O)CCOCCc1ccccc1C(F)(F)F` [Example 17, N-[2-(Diethylamino)ethyl]-N-(2-{[2-(4-hydroxy-2-oxo-2,3-dihydro-1,3-benzothiazol-7-yl)ethyl]amino}ethyl)-3-{2-[2-(trifluoromethyl)phenyl]ethoxy}propanamide ditrifluoroacetate]: on Adrenergic β2, the EC50 was 25.1 nM and the “β2 Int Act” value turned out to be 0.9. For the same molecule, the IC50 in assay [1] is 794 nM.

As to `CCN(CC)CCN(CCNCCc1ccc(O)c2[nH]c(=O)sc12)C(=O)CCOCCc1ccccc1Cl` [Example 31, 3-[2-(2-Chlorophenyl)ethoxy]-N-(2-diethylaminoethyl)-N-{2-[2-(4-hydroxy-2-oxo-2,3-dihydro-1,3-benzothiazol-7-yl)ethylamino]ethyl}propanamide ditrifluoroacetate], on Adrenergic β2, the EC50 is 20 nM and the “β2 Int Act” value was 0.9. Further, the IC50 in assay [1] was 251 nM. For the same molecule, the IC50 in assay [2] was 5010 nM.

For the molecule `CCN(CC)CCN(CCNCCc1ccc(O)c2[nH]c(=O)sc12)C(=O)CCOCCc1cccc(Cl)c1` [Example 18, 3-[2-(3-Chlorophenyl)ethoxy]-N-[2-(diethylamino)ethyl]-N-(2-{[2-(4-hydroxy-2-oxo-2,3-dihydro-1,3-benzothiazol-7-yl)ethyl]amino}ethyl)propanamide ditrifluoroacetate], on Adrenergic β2, the EC50 was 5.01 nM and the “β2 Int Act” value is 0.7. Also, the IC50 in assay [1] is 794 nM. The IC50 in assay [2] was 2510 nM.
